Measured values: patent US20040029196A1, “Epithelial cell lines from gene knockout mice and methods of use thereof” (priority 2001, published 2004)
Marks after values point to notes of the source that are not given here.

Experiments:
Apc [+/−] 1638NCOL cells [1] = assay: Cytostatic growth arrest (cell population doubling); format: cell-based, mouse; conditions: for No. of population doublings: mean ± SD, n = 3
Procedure: (§1) Differential susceptibility of C57COL (wild type Ape [+/+]), the control cell line, and 1638NCOL (Apc [+/−]) to growth inhibition by mechanistically distinct prototype chemopreventive test compounds was evaluated in a conventional cell survival assay, while the preventive efficacy of the test compounds was evaluated using optimized quantitative flow cytometry-based cell cycle analysis. Optimization of flow cytometry based cell cycle analysis is published (7, 8, 10, 11) and is needed in view of batch-to-batch variations in commercially available fluorescein isothiocyanate-conjugated antibodies.
(§2) Selective susceptibility of Ape [+/−] 1638NCOL cells to a prototype chemopreventive agent sulindac (SUL) was examined by comparing its effect on Ape [+/+] C57COL and Ape [+/−] 1638NCOL cells. The cytostatic growth arrest response, evidenced by a decrease in cell population doubling, was about 2-3 fold higher in Ape [+/−] cells as compared to that of Ape [+/+] cells (Table 3).
The dose response and efficacy studies involved treatment of cell cultures with five log μM concentrations of each compound (0.01, 0.1, 1.0, 10.0 and 100.0 μM). […] The cytostatic effect of treatment with high doses (100 μM) was associated with down regulated cell population doubling, altered aneuploid G0/G1: S+G2/M ratio, and decreased number of anchorage independent colonies (Table 4).
(§3) The cell lines were characterized for expression of epithelium specific proteins (cytokeratins), Apc gene product (full length, as opposed to truncated forms which are differentially reactive to carboxyl and amino terminal Apc antibodies), and cytodifferentiation (MUC1, acid mucopolysaccharide, alkaline phosphatase) using standard assays for immunocytochemical analysis. The growth kinetics were determined based on the time-dependent increase in the number of viable cells relative to the initial seeding density. The cell cycle progression and anchorage-independent growth were determined using fluorescence assisted flow cytometry and colony forming assays, respectively, as previously described (4, 7-11). The expression profile of specific gene products (proteins) involved in the regulation of cell cycle progression, apoptosis, and differentiation was also quantified using recently optimized cellular epifluorescence assays (10, 11).

Apc [+/−] 1638NCOL cells [2] = assay: Flow cytometry-based aneuploid cell cycle progression analysis; design: species or system mouse; conditions: for G0/G1:S + G2/M ratio (aneuploid cell cycle progression): mean ± SD, n = 3
Procedure: Aneuploidy: Fluorescence assisted cell sorting and flow cytometry of cells stained with DNA binding fluorescent dyes. Diploid and aneuploid cells accumulate as distinct peaks on the DNA histograms obtained from flow cytometric analysis.
as §1, §3

Apc [+/−] 1638NCOL cells [3] = assay: Dose response in conventional cell survival assay (growth arrest, toxicity); format: cell-based, mouse; design: key to Toxicity: +: Toxicity, surviving cell population lower than initial seeding density; conditions: for No effect: 0.01 μM
Procedure: as §1
The dose response and efficacy studies involved treatment of cell cultures with five log μM concentrations of each compound (0.01, 0.1, 1.0, 10.0 and 100.0 μM).

Apc [+/−] 1638NCOL cells [4] = assay: Anchorage-independent growth (soft agar colony formation); format: cell-based, mouse; conditions: 100 μM
From the text: Anchorage-independent growth: The ‘soft’ agar growth assay monitors the ability of cells to form non adherant colonies. Single cells suspended in 0.33% agar are overlaid on a basement matrix. These cultures are maintained for about 10-14 days and resulting colonies are counted.
as §3

C57COL (Apc [+/+]) cells = assay: Cytostatic growth arrest (cell population doubling), control cell line; format: cell-based, mouse
Procedure: as §1, §2, §3

| SMILES | % Change in no. of population doublings versus EtOH control (Apc [+/−] 1638NCOL cells [1]; 1 μM) | No. of population doublings (Apc [+/−] 1638NCOL cells [1]; 1 μM) | % Change in no. of population doublings versus EtOH control (Apc [+/−] 1638NCOL cells [1]; 10 μM) [%] | No. of population doublings (Apc [+/−] 1638NCOL cells [1]; 10 μM) | G0/G1:S + G2/M ratio (aneuploid cell cycle progression) (Apc [+/−] 1638NCOL cells [2]; 1 μM) | Cell cycle phase (Apc [+/−] 1638NCOL cells [2]; 10 μM) | G0/G1:S + G2/M ratio (aneuploid cell cycle progression) (Apc [+/−] 1638NCOL cells [2]; 10 μM) | No effect (Apc [+/−] 1638NCOL cells [3]) | Growth arrest (%) (Apc [+/−] 1638NCOL cells [3]; 1 μM (Table 8)) | Growth arrest (%) (Apc [+/−] 1638NCOL cells [3]; 0.1-10 μM) | % Change in no. of population doublings versus EtOH control (Apc [+/−] 1638NCOL cells [1]; 100 μM) [%] | Cell Population Doubling (Apc [+/−] 1638NCOL cells [1]; 100 μM) | No. of population doublings (Apc [+/−] 1638NCOL cells [1]; 100 μM) | Cell cycle phase (Apc [+/−] 1638NCOL cells [2]; 1 μM) | Aneuploid G0/G1:S + G2/M ratio (Apc [+/−] 1638NCOL cells [2]; 100 μM) | Cell cycle phase (Apc [+/−] 1638NCOL cells [2]; 100 μM) | G0/G1:S + G2/M ratio (aneuploid cell cycle progression) (Apc [+/−] 1638NCOL cells [2]; 100 μM) | Growth arrest (%) (Apc [+/−] 1638NCOL cells [3]; 100 μM) | Growth arrest (%) (Apc [+/−] 1638NCOL cells [3]; 100 μM (Table 8)) | Anchorage-independent colonies (Apc [+/−] 1638NCOL cells [4]) | further results |
| --- | --- | --- | --- | --- | --- | --- | --- | --- | --- | --- | --- | --- | --- | --- | --- | --- | --- | --- | --- | --- | --- |
| NCCCNCCSP(=O)(O)O [AMF, Amifostine] | −17.2% | 8.2 ± 0.2 | −37.4 | 6.2 ± 0.3 | 9.6 ± 0.7 | G1 arrest | 10.9 ± 0.6^c | + (No effect <20% inhibition of surviving cell population) | 25 | 25-40% | – | – | – | – | – | – | – | – | – | – | Growth arrest (%) (Apc [+/−] 1638NCOL cells [3]; 10 μM (Table 8)): 40%; Toxicity (Apc [+/−] 1638NCOL cells [3]; 100 μM): + |
| CC1=C(/C=C/C(C)=C\C=C\C(C)=C\C(=O)O)C(C)(C)CCC1 [Agent 9cisRA, 9cis retinoic acid] | −32.3% | 6.7 ± 0.2 | – | – | 13.8 ± 0.5^c | – | – | + (No effect <20% inhibition of surviving cell population) | 30 | 30% | −53.5 | 4.6 ± 0.1 | 4.6 ± 0.1^c | G1 arrest | 18.5 ± 0.2 | G1 arrest | 22.1 ± 0.6^c | 60 | 60 | 4.4 ± 1.2 | – |
| Cc1c(-c2cnccn2)ssc1=S [OLT, Oltipraz] | +8.1% | 10.7 ± 0.2 | – | – | 1.0 ± 0.2^d | – | – | + (No effect <20% inhibition of surviving cell population) | 2 | 2% | −15.1 | 8.4 ± 0.4 | 8.4 ± 0.4 | S,G2M arrest | 7.2 ± 0.1 | S,G2M arrest | 1.2 ± 0.1^d | 25 | 25 | 15.8 ± 1.8 | – |
| CC1=C(CC(=O)O)c2cc(F)ccc2/C1=C\c1ccc([S+](C)[O-])cc1 (stereo not shown) [SUL, Sulindac] | −23.2% | 7.6 ± 0.3 | – | – | 6.6 ± 0.4^d | – | – | + (No effect <20% inhibition of surviving cell population) | 30 | 30% | −61.6 | 3.8 ± 0.2 | 3.8 ± 0.2^c | – | 13.9 ± 0.5 | G1arrest | 13.9 ± 0.8^c | 70 | 70 | 0.5 ± 0.3 | Cell Population Doubling at Day 5 Post-Seeding (Apc [+/−] 1638NCOL cells [1]; 1638NCOL (Apc [+/−]), SUL 1 μM): 4.8 ± 0.6; Cell Population Doubling at Day 5 Post-Seeding (Apc [+/−] 1638NCOL cells [1]; 1638NCOL (Apc [+/−]), SUL 10 μM): 4.4 ± 0.4; Cell Population Doubling at Day 5 Post-Seeding (Apc [+/−] 1638NCOL cells [1]; 1638NCOL (Apc [+/−]), SUL 100 μM): 2.3 ± 0.3; Cytostatic growth arrest response (decrease in cell population doubling) in Apc [+/−] cells as compared to Apc [+/+] cells (Apc [+/−] 1638NCOL cells [1]; 1638NCOL versus C57COL): 2-3 fold; inhibition at 1 µM (Apc [+/−] 1638NCOL cells [1]; Mus musculus, 120 h, 1638NCOL (Apc [+/−]), SUL 1 μM, day 5): 34.2%; inhibition at 10 µM (Apc [+/−] 1638NCOL cells [1]; Mus musculus, 120 h, 1638NCOL (Apc [+/−]), SUL 10 μM, day 5): 39.7%; inhibition at 100 µM (Apc [+/−] 1638NCOL cells [1]; Mus musculus, 120 h, 1638NCOL (Apc [+/−]), SUL 100 μM, day 5): 68.5%; inhibition at 1 µM (C57COL (Apc [+/+]) cells; Mus musculus, 120 h, SUL 1 μM, day 5): 10.2%; inhibition at 10 µM (C57COL (Apc [+/+]) cells; Mus musculus, 120 h, SUL 10 μM, day 5): 15.4%; inhibition at 100 µM (C57COL (Apc [+/+]) cells; Mus musculus, 120 h, SUL 100 μM, day 5): 71.8%; Cell Population Doubling at Day 5 Post-Seeding (C57COL (Apc [+/+]) cells; SUL 1 μM): 3.5 ± 0.4; Cell Population Doubling at Day 5 Post-Seeding (C57COL (Apc [+/+]) cells; SUL 10 μM): 3.3 ± 0.7; Cell Population Doubling at Day 5 Post-Seeding (C57COL (Apc [+/+]) cells; SUL 100 μM): 1.1 ± 0.5 |
| CC/C(=C(\c1ccccc1)c1ccc(OCCN(C)C)cc1)c1ccccc1 [TAM, Tamoxifen] | −23.2% | 7.6 ± 0.4 | −28.3 | 7.1 ± 0.2 | 2.7 ± 0.9^d | S,G2M arrest | 1.8 ± 0.8^d | + (No effect <20% inhibition of surviving cell population) | 20 | 20-30% | – | – | – | S,G2M arrest | – | – | – | – | – | – | Growth arrest (%) (Apc [+/−] 1638NCOL cells [3]; 10 μM (Table 8)): 30%; Toxicity (Apc [+/−] 1638NCOL cells [3]; 100 μM): + |
